Legend:
Test in all cases: relative viability (nuclei count vs DMSO), 5 days (fraction); higher = more cells survive
[1] = compound: O=c1[nH]cc(F)c(=O)[nH]1 [5-Fluorouracil] + O=C(CCCCCCC(=O)Nc1ccccc1)NO [Vorinostat] (partner 1 µM)
Outline: (§1)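 Lung cancer cell lines, seeded in 1536-well plates, were treated the following day by pin tool with a single drug or with five library-drug doses (not always all listed) in √10 steps on top of a fixed anchor-drug dose. Cells were fixed and nuclei stained in one step after 5 days, and nuclei were counted. Relative viability is the nuclei count for treated wells divided by that for vehicle wells, reported as medians of duplicate plates.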

Sulindac + Tozasertib = compound: CC1=C(CC(=O)O)c2cc(F)ccc2/C1=C\c1ccc([S+](C)[O-])cc1 [Sulindac] + Cc1cc(Nc2cc(N3CCN(C)CC3)nc(Sc3ccc(NC(=O)C4CC4)cc3)n2)n[nH]1 [Tozasertib] (partner 0.1 µM)
Outline: as §1

Staurosporine + OSI-027 = compound: CN[C@@H]1C[C@H]2O[C@@](C)([C@@H]1OC)n1c3ccccc3c3c4c(c5c6ccccc6n2c5c31)C(=O)NC4 [Staurosporine] + COc1cccc2cc(-c3nc([C@H]4CC[C@H](C(=O)O)CC4)n4ncnc(N)c34)[nH]c12 [OSI-027] (partner 0.5 µM)
Outline: as §1

[2] = compound: O=c1[nH]cc(F)c(=O)[nH]1 [5-Fluorouracil] + CS(=O)(=O)N1CCN(Cc2cc3nc(-c4cccc5[nH]ncc45)nc(N4CCOCC4)c3s2)CC1 [Pictilisib] (partner 1 µM)
Outline: as §1

Cell Line	relative viability ([1]; first compound 0.02 µM)	relative viability ([1]; first compound 0.2 µM)	relative viability ([1]; first compound 0.6325 µM)	relative viability ([1]; first compound 2 µM)	relative viability (Sulindac + Tozasertib; first compound 0.08 µM)	relative viability (Sulindac + Tozasertib; first compound 0.253 µM)	relative viability (Sulindac + Tozasertib; first compound 2.53 µM)	relative viability (Sulindac + Tozasertib; first compound 8 µM)	relative viability (Staurosporine + OSI-027; first compound 0.005 µM)	relative viability (Staurosporine + OSI-027; first compound 0.01581 µM)	relative viability (Staurosporine + OSI-027; first compound 0.05 µM)	relative viability (Staurosporine + OSI-027; first compound 0.1581 µM)	relative viability (Staurosporine + OSI-027; first compound 0.5 µM)	relative viability ([2]; first compound 0.02 µM)	relative viability ([2]; first compound 0.2 µM)	relative viability ([2]; first compound 0.6325 µM)	relative viability ([2]; first compound 2 µM)	relative viability (Sulindac + Tozasertib; first compound 0.8 µM)
NCI-H1651	0.529	0.531	0.246	0.245	0.755	0.66	0.686	0.666	0.523	0.396	0.304	0.114	0.129	0.523	0.57	0.412	0.444	
NCI-H1666	0.981	0.649	0.577	0.563	0.624	0.627	0.562	0.648	0.658	0.542	0.548	0.425	0.262	0.659	0.293	0.292	0.285	0.593
NCI-H1734	0.807	0.835	0.685	0.464	0.221	0.25	0.295	0.286	0.456	0.245	0.209	0.13	0.0703	0.496	0.49	0.427	0.303	
NCI-H1755	0.777	0.493	0.307	0.306	0.52	0.586	0.593	0.694	0.344	0.268	0.209	0.189	0.18	0.453	0.5	0.301	0.184	0.573
NCI-H1793	0.801	0.814	0.723	0.502	0.283	0.283	0.33	0.336	0.378		0.174	0.0897	0.102	0.37	0.376	0.303	0.247	0.349
NCI-H1915	0.404	0.493	0.587	0.407	0.505	0.451	0.423	0.416	0.448	0.115	0.193	0.0877	0.111	0.958	0.908	1.01	0.773	
NCI-H1944	0.5	0.372	0.201	0.164	0.258	0.263	0.247	0.259	0.322	0.153	0.257	0.166	0.119	0.4	0.357	0.295	0.243	0.254
NCI-H1975	0.748	0.457	0.302	0.215	0.888	0.825	0.722	1.15	0.573	0.144	0.187		0.0826	0.309	0.308	0.262	0.217	0.927
NCI-H1993	0.846	0.552	0.494	0.547	0.597	0.629	0.651	0.598	0.551	0.445	0.614	0.399	0.461	0.793	0.657	0.661	0.779	0.514
NCI-H2009	0.75	0.825	0.753	0.396	0.883	0.809	0.707	0.99	0.233		0.163	0.123	0.082	0.798	0.679	0.533	0.446	0.712
NCI-H2023	0.369	0.124	0.103	0.0849	0.558	0.365	0.3	0.41	0.185	0.101	0.084	0.0704	0.0498	0.283	0.164	0.0894	0.0821	0.322
NCI-H2085	0.754	0.96	0.728	0.651	0.789	0.842	0.797	0.807	0.597	0.168	0.249	0.155	0.148	0.461	0.504	0.445	0.507	0.829
NCI-H2087	0.801	0.924	0.515	0.367	0.237	0.284	0.293	0.233	0.366	0.135	0.147	0.106	0.107	0.912	0.916	0.607	0.602	
NCI-H2126	0.59	0.296	0.279	0.262	0.887	0.905	0.754	0.934	0.712	0.406	0.486	0.338	0.333	0.504	0.354	0.305	0.306	0.895
NCI-H2170	0.796	0.704	0.33	0.292	0.791	0.928	0.675	0.719	0.815		0.576	0.175	0.0943	0.354	0.338	0.314	0.285	0.797
NCI-H2228	0.665	0.373	0.407	0.321	0.222	0.248	0.294	0.262	0.689	0.273	0.188	0.0855	0.0902	0.378	0.309	0.205	0.201	0.242
NCI-H2347	0.64	0.41	0.41	0.431	0.522	0.615	0.528	0.598	0.385	0.229	0.171	0.277	0.238	0.688	0.44	0.407	0.363	
NCI-H2405	1.02	1.14	0.931	0.522	0.733	0.795	0.793	0.751	0.593	0.182	0.116	0.0974	0.0903	0.566	0.536	0.303	0.463	0.684
